Measurements published in the NIST ThermoML archive (doi:10.1016/j.jct.2005.05.004).

How the values were obtained:
[1] = xn = mol fraction of the nth substance listed; settings: 298.15 K, 101.32 kPa, Liquid, Vibrating tube method
[2] = refractive index (Na D-line) (dimensionless); xn = mol fraction of the nth substance listed; settings: 298.15 K, 101.32 kPa, Liquid

CCI [iodoethane] + CO
Settings | mass density, [1] [kg/m3] | refractive index, [2]
x2 = 0.1198 | 1843.6 | 1.4964
x2 = 0.1399 | 1829.8 | 1.4938
x2 = 0.2068 | 1783 | 1.4869
x2 = 0.26 | 1743.6 | 1.4787
x2 = 0.4066 | 1622.2 | 1.4578
x2 = 0.4234 | 1606.9 | 1.4553
x2 = 0.4808 | 1552.1 | 1.4451
x2 = 0.4954 | 1537.5 | 1.4436
x2 = 0.5699 | 1458.5 | 1.4302
x2 = 0.6771 | 1329.5 | 1.4084
x2 = 0.7989 | 1156.8 | 1.3821
x2 = 0.9094 | 969.6 | 1.3534

CCI [iodoethane] + Cc1ccccc1
Settings | mass density, [1] [kg/m3] | refractive index, [2]
x2 = 0.1279 | 1749.5 | 1.5056
x2 = 0.2014 | 1655.8 | 1.5038
x2 = 0.3085 | 1526.9 | 1.5012
x2 = 0.3955 | 1428.3 | 1.5002
x2 = 0.4476 | 1371.7 | 1.499
x2 = 0.4678 | 1350.2 | 1.4992
x2 = 0.4961 | 1320.5 | 1.4983
x2 = 0.5735 | 1241.7 | 1.4974
x2 = 0.6009 | 1214.7 | 1.4968
x2 = 0.6974 | 1122.5 | 1.4959
x2 = 0.7276 | 1094.6 | 1.4957
x2 = 0.7984 | 1031 | 1.4948
x2 = 0.8866 | 954.9 | 1.4943
x2 = 0.9322 | 916.9 | 1.494
